Test results: ChEMBL document CHEMBL1158298, “Syringin 4-O-beta-glucoside, a new phenylpropanoid glycoside, and costunolide, a nitric oxide synthase inhibitor, from the stem bark of Magnolia sieboldii” (J Nat Prod, 1996)

Experiments:
Assay type in all cases: cell-based
J774.1 [1] = assay: Inhibition of nitric oxides synthase in mouse J774.1 cells assessed as inhibition of LPS-induced NO release at 100 ug/mL after 48 hrs by Griess assay relative to control
[2] = Cytotoxicity against mouse J774.1 cells assessed as cell viability after 48 hrs by MTT assay; conditions: read-out: Activity
J774.1 [3] = assay: Inhibition of nitric oxides synthase in mouse J774.1 cells assessed as inhibition of LPS-induced NO release at 1 ug/mL after 48 hrs by Griess assay relative to control

Row | SMILES | inhibition (J774.1 [1]) [%] | viability at 48 h [2] [%] | inhibition (J774.1 [3]) [%]
1 | COc1cc(/C=C/CO)cc(OC)c1O[C@@H]1O[C@H](CO)[C@@H](O)[C@H](O)[C@H]1O | 12.3 |  | 
2 | COc1cc(/C=C/CO)cc(OC)c1O[C@@H]1O[C@H](CO)[C@@H](O[C@@H]2O[C@H](CO)[C@@H](O)[C@H](O)[C@H]2O)[C@H](O)[C@H]1O | 22.3 |  | 
3 | C[C@H]1O[C@H](O[C@@H]2[C@@H](O)[C@H](OCCc3ccc(O)c(O)c3)O[C@H](CO[C@H]3O[C@@H](CO)[C@H](O)[C@@H](O)[C@@H]3O)[C@H]2OC(=O)/C=C/c2ccc(O)c(O)c2)[C@@H](O)[C@@H](O)[C@@H]1O | 10.4 |  | 
4 | C=C1C(=O)O[C@@H]2/C=C(\C)CC/C=C(\C)CC[C@@H]12 [COSTUNOLIDE] | 94.6 | 92 | 50.3
